Reference: PMC4537286, “Permeation of Therapeutic Drugs in Different Formulations across the Airway Epithelium In Vitro” (PLoS ONE, 2015)
Counter-ions that a name gives are not always drawn. Like-named read-outs stand apart in the source and are kept apart here.

Key:
[1] = Size of particles delivered by DP-4 Dry Powder Insufflator, bright-field microscopy; type: physicochemical; conditions: roughly spherical particles
Protocol: Particles that were delivered by the DP-4 Dry Powder Insufflator were analyzed by bright-field microscopy. […] Sizes were measured using Cell^D Imaging software (Olympus).

[2] = Transport studies across Calu-3 monolayers, compounds applied in solution (SLE, ALE), Papp; conditions: human; for Papp at 120 min, 10 μg/ml: pH 7.4, Papp values for fluorescein, n = 12
Calu-3 cells [3] = assay: as above
Calu-3 cells [4] = assay: Transport of aerosolized compounds across Calu-3 monolayers (AID_M MicroSprayer, AID_D DP-4 insufflator); conditions: for Dye transport relative to SLE: application with DP-4 Dry Powder Insufflator (AID_D); for Dye transport relative to SLE incubation: application with MicroSprayer IA-1C Aerosolizer (AID_M)
Calu-3 cells [5] = conditions: cited from earlier work; for Papp values of rhodamine 123 reported: ref [68],[70]
Calu-3 cells [6] = conditions: human, pH 7.4
Calu-3 cells [7] = system: Calu-3 cells
in vitro = conditions: human, pH 7.4, Papp
[8] = pH 7.4, Papp, SLE (submersed culture, compound in buffer), n = 4
[9] = pH 7.4, Papp, ALE (air-liquid interface culture, compound in buffer), n = 4

Papp at 120 min [2, 8] [×10⁻⁶ cm/s]	Ratio Papp (ALE/ SLE) (Calu-3 cells [3])	Papp at 120 min, 10 μg/ml ([2]; Air-liquid interface culture, 0.4 μm pores) [×10⁻⁶ cm/s]	Papp at 120 min, 10 μg/ml ([2]; Air-liquid interface culture, 3 μm pores) [×10⁻⁶ cm/s]	Papp at 120 min, 10 μg/ml ([2]; Submersed culture, 3 μm pores) [×10⁻⁶ cm/s]	Papp at 120 min [2, 9] [×10⁻⁶ cm/s]	Dye transport relative to SLE (Calu-3 cells [4]) [times]	Dye transport relative to SLE incubation (Calu-3 cells [4]) [times]	Structure (SMILES)	Size of delivered single particles [1] [μm]	Papp at 120 min ([2]; pH 7.4) [×10⁻⁶ cm/s]	Amount of budesonide in the cells (Calu-3 cells [3]; cell lysis after the last sample, total recovered amount 19.3±0.7 μg) [µg]	Change of budesonide transport on co-incubation with formoterol (Calu-3 cells [3]; solution, SLE and ALE, mixture 50 μM budesonide and 0.5 mM formoterol fumarate)	Transport in the fixed dose combination Symbicort versus applied alone (Calu-3 cells [4]; DP-4 Dry Powder Insufflator (AID_D), n = 3)	Papp values of fluorescein published by other groups (Calu-3 cells [5]; SLE, ref [8],[41],[49],[65]–[69]) [x 10–6 cm/s]	Papp (Calu-3 cells [6])	Ratio Papp (ALE/ SLE) (Calu-3 cells [6])	Transport in the fixed dose combination Symbicort versus applied alone (Calu-3 cells [7])	Papp (in vitro) [×10⁻⁶ cm/s]	Papp values of rhodamine 123 reported (Calu-3 cells [5]; ALE) [×10⁻⁶ cm/s]	Papp values of rhodamine 123 reported (Calu-3 cells [5]; SLE) [×10⁻⁶ cm/s]
0.09 ± 0.04	3.00	0.23 ± 0.04	0.27 ± 0.08	0.09 ± 0.04	0.27 ± 0.08	131.7	4.3	O=C1OC2(c3ccc(O)cc3Oc3cc(O)ccc32)c2ccccc21 [Fluorescein, Sodium fluorescein]	1.1±0.3	–	–	–	–	0.1	–	–	–	–	–	–
–	–	–	–	–	–	–	–	COc1ccc(CC(C)NCC(O)c2ccc(O)c(NC=O)c2)cc1 (stereo not shown) [Formoterol, formoterol fumarate dihydrate]	–	–	–	–	–	–	1.72±0.24 10^−6 cm/s	1.73	significantly higher	2.98 ± 0.79	–	–
0.07 ± 0.02	3.86	–	–	–	0.27 ± 0.09	48.2	3.2	COC(=O)c1ccccc1-c1c2ccc(=N)cc-2oc2cc(N)ccc12 [Rhodamine 123, rhodamine 123]	–	–	–	–	–	–	–	–	–	–	2.27	0.49

Structure (SMILES)	Papp at 120 min [2, 8] [×10⁻⁶ cm/s]	Ratio Papp (ALE/ SLE) (Calu-3 cells [3])	Papp at 120 min, 10 μg/ml ([2]; Air-liquid interface culture, 0.4 μm pores) [×10⁻⁶ cm/s]	Papp at 120 min, 10 μg/ml ([2]; Air-liquid interface culture, 3 μm pores) [×10⁻⁶ cm/s]	Papp at 120 min, 10 μg/ml ([2]; Submersed culture, 3 μm pores) [×10⁻⁶ cm/s]	Papp at 120 min [2, 9] [×10⁻⁶ cm/s]	Dye transport relative to SLE (Calu-3 cells [4]) [times]	Dye transport relative to SLE incubation (Calu-3 cells [4]) [times]	Size of delivered single particles [1] [μm]	Papp at 120 min ([2]; pH 7.4) [×10⁻⁶ cm/s]	Amount of budesonide in the cells (Calu-3 cells [3]; cell lysis after the last sample, total recovered amount 19.3±0.7 μg) [µg]	Change of budesonide transport on co-incubation with formoterol (Calu-3 cells [3]; solution, SLE and ALE, mixture 50 μM budesonide and 0.5 mM formoterol fumarate)	Transport in the fixed dose combination Symbicort versus applied alone (Calu-3 cells [4]; DP-4 Dry Powder Insufflator (AID_D), n = 3)	Papp values of fluorescein published by other groups (Calu-3 cells [5]; SLE, ref [8],[41],[49],[65]–[69]) [x 10–6 cm/s]	Papp (Calu-3 cells [6])	Ratio Papp (ALE/ SLE) (Calu-3 cells [6])	Transport in the fixed dose combination Symbicort versus applied alone (Calu-3 cells [7])	Papp (in vitro) [×10⁻⁶ cm/s]	Papp values of rhodamine 123 reported (Calu-3 cells [5]; ALE) [×10⁻⁶ cm/s]	Papp values of rhodamine 123 reported (Calu-3 cells [5]; SLE) [×10⁻⁶ cm/s]
CCCC1O[C@@H]2C[C@H]3[C@@H]4CCC5=CC(=O)C=C[C@]5(C)[C@H]4[C@@H](O)C[C@]3(C)[C@]2(C(=O)CO)O1 (stereo partly shown) [Budesonide, budesonide]	13.18 ± 0.06	1.36	–	–	–	–	–	–	3.2± 1.3	17.9 ± 1.36	0.96	did not show changes	no differences	–	–	–	–	–	–	–
